Measured values as given in publication PMC8338929, “Acetylation turns leucine into a drug by membrane transporter switching” (Scientific Reports, 2021).
Entries after “also recorded” stand apart in the source; their conditions may differ.

Key:
human PepT1 (SLC15A1) = biological target: T1, human PepT1 (SLC15A1) (Homo sapiens, UniProt P46059); assay: PepT1-mediated cellular uptake in transfected MDCK-II cells; assay type: cell-based; details: pH 5.5, 37 °C
T1 construct: host or cells: MDCK-II
T1 sequence (P46059 1-708): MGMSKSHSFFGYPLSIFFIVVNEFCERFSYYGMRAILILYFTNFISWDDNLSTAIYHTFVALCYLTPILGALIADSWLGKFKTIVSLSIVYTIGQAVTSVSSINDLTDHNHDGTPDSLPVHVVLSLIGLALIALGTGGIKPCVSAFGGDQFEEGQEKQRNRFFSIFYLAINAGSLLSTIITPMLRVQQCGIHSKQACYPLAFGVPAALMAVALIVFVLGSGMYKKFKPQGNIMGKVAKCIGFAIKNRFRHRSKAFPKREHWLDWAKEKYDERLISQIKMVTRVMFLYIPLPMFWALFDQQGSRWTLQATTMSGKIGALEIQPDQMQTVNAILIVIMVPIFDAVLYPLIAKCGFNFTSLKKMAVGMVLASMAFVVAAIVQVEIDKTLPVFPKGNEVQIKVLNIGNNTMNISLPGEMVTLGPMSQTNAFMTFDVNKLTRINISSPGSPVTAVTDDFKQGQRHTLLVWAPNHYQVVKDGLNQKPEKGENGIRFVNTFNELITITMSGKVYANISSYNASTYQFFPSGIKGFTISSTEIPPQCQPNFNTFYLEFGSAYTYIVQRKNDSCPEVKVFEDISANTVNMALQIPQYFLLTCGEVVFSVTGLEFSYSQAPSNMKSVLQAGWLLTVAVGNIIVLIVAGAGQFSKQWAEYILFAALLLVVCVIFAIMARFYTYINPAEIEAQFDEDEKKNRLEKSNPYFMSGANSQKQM
Description: Transport studies with human PepT1 (SLC15A1), LAT1 (SLC7A5) and MCT1 (SLC16A1) were conducted in MDCK-II cells expressing the human transporter or control cells expressing a vector with Green Fluorescence Protein. Cells were transfected using a proprietary, transient transfection system (OPTI-EXPRESSION Technology, BioIVT). The results from the control cells were used to correct for substrate permeation by routes other than the transporter being investigated in the study. […] Specifically, Net Transporter Mediated Substrate Uptake (pmol/min/cm^2) = (Cellular accumulation in the presence of the transporter) − (Mean cellular accumulation in the absence of the transporter). MDCK-II cells were maintained in DMEM with low glucose and 10% FBS. Cells were used at passages up to 40 were seeded at 60,000 ± 10,000 cells/well on 96-well plates approximately 24 h before transfection, and transport assays were performed approximately 48 h after transfection. […]
Transport studies with PepT1 were conducted in 96-well cell culture plate with wells containing a monolayer of MDCK-II cells grown on a permeable support and a corresponding 96-well receiver tray. […] Then a 30-µL sample was taken and mixed with 200 µL of scintillation fluid and scintillation counted (1450 Microbeta, Perkin-Elmer). […]

human MCT1 (SLC16A1) = biological target: T2, human MCT1 (SLC16A1) (Homo sapiens, UniProt P53985); assay: MCT1-mediated cellular uptake in transfected MDCK-II cells; assay type: cell-based; details: 1 min, room temperature, Michaelis-Menten fit
T2 construct: host or cells: MDCK-II
T2 sequence (P53985 1-500): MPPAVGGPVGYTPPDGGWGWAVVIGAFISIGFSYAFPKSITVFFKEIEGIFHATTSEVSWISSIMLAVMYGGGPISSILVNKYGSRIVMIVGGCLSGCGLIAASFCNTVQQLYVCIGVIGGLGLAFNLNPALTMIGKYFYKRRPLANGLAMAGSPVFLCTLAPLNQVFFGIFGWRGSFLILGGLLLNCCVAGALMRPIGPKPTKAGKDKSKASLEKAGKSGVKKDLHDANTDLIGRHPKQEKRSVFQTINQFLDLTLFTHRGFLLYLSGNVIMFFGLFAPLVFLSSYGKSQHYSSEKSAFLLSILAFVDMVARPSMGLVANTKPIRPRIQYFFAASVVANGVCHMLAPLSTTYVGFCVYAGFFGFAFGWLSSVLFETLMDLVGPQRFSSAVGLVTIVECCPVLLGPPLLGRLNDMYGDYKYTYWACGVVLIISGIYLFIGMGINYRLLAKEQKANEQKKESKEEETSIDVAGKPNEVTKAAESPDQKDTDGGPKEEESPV
Description: Transport studies with human PepT1 (SLC15A1), LAT1 (SLC7A5) and MCT1 (SLC16A1) were conducted in MDCK-II cells expressing the human transporter or control cells expressing a vector with Green Fluorescence Protein. Cells were transfected using a proprietary, transient transfection system (OPTI-EXPRESSION Technology, BioIVT). The results from the control cells were used to correct for substrate permeation by routes other than the transporter being investigated in the study. […] Specifically, Net Transporter Mediated Substrate Uptake (pmol/min/cm^2) = (Cellular accumulation in the presence of the transporter) − (Mean cellular accumulation in the absence of the transporter). MDCK-II cells were maintained in DMEM with low glucose and 10% FBS. Cells were used at passages up to 40 were seeded at 60,000 ± 10,000 cells/well on 96-well plates approximately 24 h before transfection, and transport assays were performed approximately 48 h after transfection. Transport studies in MDCK-II cells were conducted in 96-well insert plates with permeable membrane (0.4 µm) and receiver tray (Millipore MultiScreen Filter 96-well).
Transport studies with PepT1 were conducted in 96-well cell culture plate with wells containing a monolayer of MDCK-II cells grown on a permeable support and a corresponding 96-well receiver tray. Cell plates are maintained at 37 °C in 5% CO2 atmosphere prior to initiation of the transport experiment. Pre-incubation was conducted in HBSS, pH 7.4. The transport experiments were conducted in HBSS with Bis–Tris, pH 5.5, without phenol red. Both pre-incubation and incubation were conducted at 37 °C. All final assay solutions of probe substrate, reference inhibitor or test article contain 0.5% (v/v) DMSO (vehicle control). The culture plate insert […] was washed with warm HBSS three times and then blotted dry. The culture plate wells […] were washed with warm HBSS three times. […] Then a 30-µL sample was taken and mixed with 200 µL of scintillation fluid and scintillation counted (1450 Microbeta, Perkin-Elmer). […]

Vmax MCT1 uptake (human MCT1 (SLC16A1)): 224
SMILES: CC(=O)N[C@@H](CC(C)C)C(=O)O [N-acetyl-L-leucine]
substrate of PepT1 (uptake) (human PepT1 (SLC15A1)): not transported; also recorded: not a substrate
